# Source: ChEMBL document CHEMBL5465560, “Selectivity Literature for EUbOPEN Chemogenomic Library” (2024)
# Assays:
# [1] = target: CDK6/cyclin D3 (Homo sapiens) (UniProt P30281+Q00534); assay: (§1) Selectivity interaction (Rxn Biology Kinase assay) EUB0001632a CDK6; type: protein-complex assay; conditions: at 10 µM
# [2] = target: CDK6/cyclin D1 (Homo sapiens) (UniProt P24385+Q00534); assay: as §1; type: protein-complex assay; conditions: at 10 µM
# [3] = target: T1, Protein kinase C iota type (Homo sapiens) (UniProt P41743); assay: Selectivity interaction (KinomeScan (DiscoverX)) EUB0000607a PRKCI; conditions: at 10 µM
# T1 sequence (whole entry): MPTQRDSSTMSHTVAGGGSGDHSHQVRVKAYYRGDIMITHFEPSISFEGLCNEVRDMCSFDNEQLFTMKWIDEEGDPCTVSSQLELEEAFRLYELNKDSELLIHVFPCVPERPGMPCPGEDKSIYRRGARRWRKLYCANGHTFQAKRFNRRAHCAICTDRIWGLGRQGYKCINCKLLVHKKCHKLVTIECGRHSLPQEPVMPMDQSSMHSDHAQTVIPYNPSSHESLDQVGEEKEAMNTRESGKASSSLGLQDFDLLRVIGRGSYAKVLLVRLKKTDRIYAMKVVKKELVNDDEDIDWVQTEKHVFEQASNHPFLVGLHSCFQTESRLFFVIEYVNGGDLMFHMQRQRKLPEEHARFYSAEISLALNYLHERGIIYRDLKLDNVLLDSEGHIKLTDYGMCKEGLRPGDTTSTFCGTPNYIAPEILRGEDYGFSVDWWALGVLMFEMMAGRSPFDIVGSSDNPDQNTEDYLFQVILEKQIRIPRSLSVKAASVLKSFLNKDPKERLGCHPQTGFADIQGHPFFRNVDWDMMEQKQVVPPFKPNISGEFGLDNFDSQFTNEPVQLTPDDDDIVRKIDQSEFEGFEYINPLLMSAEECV
# [4] = tested on: Tyrosine-protein kinase ABL1 (Homo sapiens), P00519 [E255K]; conditions: at 10 µM
# [5] = target: Macrophage colony-stimulating factor 1 receptor (Homo sapiens) (UniProt P07333); assay: Selectivity interaction (ProQinase) EUB0000171b CSF1R
# [6] = target: Myosin light chain kinase 2, skeletal/cardiac muscle (Homo sapiens) (UniProt Q9H1R3); assay: Selectivity interaction (KinomeScan (DiscoverX)) EUB0000695a MYLK2; conditions: at 100 nM
# [7] = target: Casein kinase I isoform delta (Homo sapiens, UniProt P48730); assay: Selectivity interaction (Kinase panel (DSF assay)) EUB0001559a CSNK1D
# [8] = target: Tyrosine-protein kinase SYK (Homo sapiens, UniProt P43405); assay: Selectivity interaction (KinomeScan (DiscoverX)) EUB0000595a SYK; conditions: at 10 µM
# [9] = target: T2, Dual specificity mitogen-activated protein kinase kinase 5 (Homo sapiens) (UniProt Q13163); assay: Selectivity interaction (KinomeScan (DiscoverX)) EUB0000595a MAP2K5; conditions: at 10 µM
# T2 sequence (whole entry): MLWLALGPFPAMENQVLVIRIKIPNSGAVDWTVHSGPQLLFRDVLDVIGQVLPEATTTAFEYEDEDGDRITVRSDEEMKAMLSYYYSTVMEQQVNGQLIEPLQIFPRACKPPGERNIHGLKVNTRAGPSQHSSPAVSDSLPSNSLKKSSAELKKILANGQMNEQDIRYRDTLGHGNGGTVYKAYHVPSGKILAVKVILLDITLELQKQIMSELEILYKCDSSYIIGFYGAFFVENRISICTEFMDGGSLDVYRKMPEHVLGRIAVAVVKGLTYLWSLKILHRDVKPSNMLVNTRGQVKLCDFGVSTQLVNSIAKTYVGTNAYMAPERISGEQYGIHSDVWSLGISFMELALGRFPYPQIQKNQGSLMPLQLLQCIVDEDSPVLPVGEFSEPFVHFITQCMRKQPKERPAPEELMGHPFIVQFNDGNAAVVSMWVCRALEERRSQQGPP
# [10] = target: CDK6/cyclin D2 (Homo sapiens) (UniProt Q00534+P30279); assay: Selectivity interaction (Millipore kinase profiler) EUB0000124b CDK6; type: protein-complex assay; conditions: at 10 µM
# [11] = target: Dual specificity tyrosine-phosphorylation-regulated kinase 1A (Homo sapiens, UniProt Q13627); assay: Selectivity interaction (Kinase panel (DSF assay)) EUB0001558a DYRK1A
# [12] = target: T3, Ephrin type-A receptor 8 (Homo sapiens) (UniProt P29322); assay: Selectivity interaction (KinomeScan (DiscoverX)) EUB0000655a EPHA8; conditions: at 10 µM
# T3 sequence (whole entry): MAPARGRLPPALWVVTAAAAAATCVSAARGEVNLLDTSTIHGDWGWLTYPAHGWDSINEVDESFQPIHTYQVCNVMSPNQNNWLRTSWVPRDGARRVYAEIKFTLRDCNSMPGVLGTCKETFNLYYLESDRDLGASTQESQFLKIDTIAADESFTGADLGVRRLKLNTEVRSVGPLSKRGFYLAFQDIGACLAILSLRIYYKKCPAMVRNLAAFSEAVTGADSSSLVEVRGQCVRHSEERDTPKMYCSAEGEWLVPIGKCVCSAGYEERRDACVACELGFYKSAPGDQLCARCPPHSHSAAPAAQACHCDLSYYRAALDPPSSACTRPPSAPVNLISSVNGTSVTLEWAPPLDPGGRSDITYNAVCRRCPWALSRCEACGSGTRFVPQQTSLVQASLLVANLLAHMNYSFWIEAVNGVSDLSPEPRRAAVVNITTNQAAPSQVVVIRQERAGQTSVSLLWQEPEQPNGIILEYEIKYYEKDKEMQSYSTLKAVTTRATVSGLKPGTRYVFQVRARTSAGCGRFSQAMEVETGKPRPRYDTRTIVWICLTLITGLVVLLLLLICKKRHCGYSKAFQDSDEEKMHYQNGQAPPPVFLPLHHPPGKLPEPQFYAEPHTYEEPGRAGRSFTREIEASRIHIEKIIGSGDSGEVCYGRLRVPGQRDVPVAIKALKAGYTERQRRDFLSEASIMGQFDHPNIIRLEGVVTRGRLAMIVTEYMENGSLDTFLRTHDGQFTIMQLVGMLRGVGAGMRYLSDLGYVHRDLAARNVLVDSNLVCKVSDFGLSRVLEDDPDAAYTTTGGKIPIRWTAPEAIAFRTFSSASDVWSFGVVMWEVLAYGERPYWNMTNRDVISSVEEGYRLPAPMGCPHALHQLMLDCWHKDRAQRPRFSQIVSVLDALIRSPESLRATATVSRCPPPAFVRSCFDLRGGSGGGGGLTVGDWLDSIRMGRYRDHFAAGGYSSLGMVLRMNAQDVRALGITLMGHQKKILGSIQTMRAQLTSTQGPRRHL
# [13] = target: T3, Ephrin type-A receptor 8 (Homo sapiens); conditions: at 10 µM
# [14] = target: Activin receptor type-2A (Homo sapiens) (UniProt P27037); assay: Selectivity interaction (KinomeScan (DiscoverX)) EUB0000618a ACVR2A; conditions: at 10 µM
# [15] = target: Cyclin-dependent kinase 2 (Homo sapiens, UniProt P24941); assay: Selectivity interaction (ActivX KiNativ screen (ex vivo kinase selectivity in human PBMCs)) EUB0001619a CDK2; type: cell-based; conditions: PBMC, at 1 µM
# Macrophage colony-stimulating factor 1 receptor (Homo sapiens), sequence (P07333 whole entry): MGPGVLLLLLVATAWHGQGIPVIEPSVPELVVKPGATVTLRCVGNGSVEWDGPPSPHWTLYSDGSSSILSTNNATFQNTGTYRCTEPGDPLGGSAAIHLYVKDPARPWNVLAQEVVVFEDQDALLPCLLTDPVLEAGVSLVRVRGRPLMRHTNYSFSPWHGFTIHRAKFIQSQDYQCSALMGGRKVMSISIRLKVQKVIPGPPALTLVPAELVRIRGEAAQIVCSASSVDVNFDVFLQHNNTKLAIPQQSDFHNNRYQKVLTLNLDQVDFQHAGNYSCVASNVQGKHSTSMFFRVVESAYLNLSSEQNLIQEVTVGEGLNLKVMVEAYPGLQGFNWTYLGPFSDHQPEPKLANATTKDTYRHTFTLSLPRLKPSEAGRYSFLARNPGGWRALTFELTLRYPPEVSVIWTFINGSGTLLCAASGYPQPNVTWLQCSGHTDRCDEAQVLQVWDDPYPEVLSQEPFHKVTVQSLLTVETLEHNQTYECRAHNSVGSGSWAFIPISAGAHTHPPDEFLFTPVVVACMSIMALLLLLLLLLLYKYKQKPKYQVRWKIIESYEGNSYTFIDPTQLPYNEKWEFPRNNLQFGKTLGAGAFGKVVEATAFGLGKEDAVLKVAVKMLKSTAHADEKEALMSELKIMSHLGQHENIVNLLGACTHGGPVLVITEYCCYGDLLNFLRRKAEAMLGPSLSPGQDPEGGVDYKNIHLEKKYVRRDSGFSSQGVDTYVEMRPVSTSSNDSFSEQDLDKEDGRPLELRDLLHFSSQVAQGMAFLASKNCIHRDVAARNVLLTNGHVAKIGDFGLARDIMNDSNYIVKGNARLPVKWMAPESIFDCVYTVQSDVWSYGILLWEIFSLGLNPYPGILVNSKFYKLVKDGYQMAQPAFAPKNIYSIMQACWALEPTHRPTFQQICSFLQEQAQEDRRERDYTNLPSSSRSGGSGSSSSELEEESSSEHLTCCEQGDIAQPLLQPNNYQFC
# Activin receptor type-2A (Homo sapiens), sequence (P27037 whole entry): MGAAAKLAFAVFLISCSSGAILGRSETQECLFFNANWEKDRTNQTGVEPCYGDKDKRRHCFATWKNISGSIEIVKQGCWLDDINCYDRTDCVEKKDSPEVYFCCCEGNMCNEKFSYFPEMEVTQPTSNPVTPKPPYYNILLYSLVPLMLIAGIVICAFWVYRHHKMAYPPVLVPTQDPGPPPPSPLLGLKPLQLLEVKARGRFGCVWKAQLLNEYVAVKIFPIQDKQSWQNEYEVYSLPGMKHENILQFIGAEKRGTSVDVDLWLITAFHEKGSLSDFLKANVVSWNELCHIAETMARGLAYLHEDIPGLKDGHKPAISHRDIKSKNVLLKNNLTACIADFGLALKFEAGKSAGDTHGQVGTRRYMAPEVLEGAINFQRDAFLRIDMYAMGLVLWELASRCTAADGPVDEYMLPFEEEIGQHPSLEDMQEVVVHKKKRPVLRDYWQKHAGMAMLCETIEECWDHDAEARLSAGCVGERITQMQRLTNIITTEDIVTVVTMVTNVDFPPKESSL
# Myosin light chain kinase 2, skeletal/cardiac muscle (Homo sapiens), sequence (Q9H1R3 whole entry, canonical isoform): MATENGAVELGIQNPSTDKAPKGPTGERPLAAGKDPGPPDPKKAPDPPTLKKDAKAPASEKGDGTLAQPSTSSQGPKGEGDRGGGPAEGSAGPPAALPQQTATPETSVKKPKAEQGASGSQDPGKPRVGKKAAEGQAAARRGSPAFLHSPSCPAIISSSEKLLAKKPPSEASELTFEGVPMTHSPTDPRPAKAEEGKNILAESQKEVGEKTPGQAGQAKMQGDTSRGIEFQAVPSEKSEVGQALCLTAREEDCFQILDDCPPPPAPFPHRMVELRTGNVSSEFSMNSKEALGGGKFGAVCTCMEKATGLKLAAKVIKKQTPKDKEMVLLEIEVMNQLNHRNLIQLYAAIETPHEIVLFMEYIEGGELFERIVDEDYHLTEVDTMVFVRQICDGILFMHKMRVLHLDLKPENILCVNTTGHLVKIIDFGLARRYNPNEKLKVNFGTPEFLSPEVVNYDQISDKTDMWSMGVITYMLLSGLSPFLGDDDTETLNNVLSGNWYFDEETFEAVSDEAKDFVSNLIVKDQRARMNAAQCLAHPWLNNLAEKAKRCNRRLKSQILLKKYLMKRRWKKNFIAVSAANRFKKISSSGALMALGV
# Tyrosine-protein kinase ABL1 (Homo sapiens), P00519 [E255K], sequence (P00519 whole entry E255K): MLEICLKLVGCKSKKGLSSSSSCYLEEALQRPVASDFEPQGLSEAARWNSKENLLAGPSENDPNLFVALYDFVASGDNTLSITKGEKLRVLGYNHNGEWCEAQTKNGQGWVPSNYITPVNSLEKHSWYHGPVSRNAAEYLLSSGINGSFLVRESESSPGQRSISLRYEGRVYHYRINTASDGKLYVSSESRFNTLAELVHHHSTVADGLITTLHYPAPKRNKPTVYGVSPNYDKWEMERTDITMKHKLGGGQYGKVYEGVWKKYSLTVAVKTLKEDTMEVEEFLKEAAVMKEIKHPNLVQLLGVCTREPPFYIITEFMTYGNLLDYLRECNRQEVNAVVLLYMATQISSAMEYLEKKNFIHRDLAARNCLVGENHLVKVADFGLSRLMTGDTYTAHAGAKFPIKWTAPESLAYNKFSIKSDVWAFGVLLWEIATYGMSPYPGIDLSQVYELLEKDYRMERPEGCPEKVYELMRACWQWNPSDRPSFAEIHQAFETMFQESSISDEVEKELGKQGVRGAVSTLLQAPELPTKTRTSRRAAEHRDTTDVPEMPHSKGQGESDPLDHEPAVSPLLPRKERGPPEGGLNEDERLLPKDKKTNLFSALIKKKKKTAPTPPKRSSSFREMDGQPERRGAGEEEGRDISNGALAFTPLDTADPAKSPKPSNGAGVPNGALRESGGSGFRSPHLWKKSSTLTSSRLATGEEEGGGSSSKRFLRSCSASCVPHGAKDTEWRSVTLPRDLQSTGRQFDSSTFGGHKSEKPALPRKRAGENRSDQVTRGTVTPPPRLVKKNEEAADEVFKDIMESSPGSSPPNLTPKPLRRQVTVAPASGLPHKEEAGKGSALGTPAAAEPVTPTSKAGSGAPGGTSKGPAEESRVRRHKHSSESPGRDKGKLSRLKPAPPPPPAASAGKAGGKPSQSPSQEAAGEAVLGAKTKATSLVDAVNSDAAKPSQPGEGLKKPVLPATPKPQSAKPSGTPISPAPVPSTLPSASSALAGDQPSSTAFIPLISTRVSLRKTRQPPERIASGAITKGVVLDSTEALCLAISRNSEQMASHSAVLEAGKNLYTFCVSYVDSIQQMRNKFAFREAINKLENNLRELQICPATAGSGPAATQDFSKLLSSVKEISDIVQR
# Casein kinase I isoform delta, sequence (P48730 whole entry, looked up, canonical isoform): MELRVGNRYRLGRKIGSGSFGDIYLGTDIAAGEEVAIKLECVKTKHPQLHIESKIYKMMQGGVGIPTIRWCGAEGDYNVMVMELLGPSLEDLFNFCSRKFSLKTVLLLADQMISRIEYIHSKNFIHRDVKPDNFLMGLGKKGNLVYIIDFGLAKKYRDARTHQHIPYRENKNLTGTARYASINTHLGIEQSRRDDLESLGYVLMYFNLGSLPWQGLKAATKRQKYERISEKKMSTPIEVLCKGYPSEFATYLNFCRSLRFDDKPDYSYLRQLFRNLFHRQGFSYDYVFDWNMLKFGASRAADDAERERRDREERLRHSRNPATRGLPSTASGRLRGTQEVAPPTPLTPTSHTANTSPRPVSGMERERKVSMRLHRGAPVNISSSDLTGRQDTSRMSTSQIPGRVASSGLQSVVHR
smiles,measurement,setting,value
Cn1cc(-n2cnc3c(NCc4nc5cc(Cl)c(Cl)cc5[nH]4)nc(N4CCOCC4)nc32)cn1,% of inhibition,[1],52.8%
same,% of inhibition,[2],83.4%
CNC(=O)Nc1ccc(-c2nc(N3CC4CCC(C3)O4)c3cnn(C4CCC5(CC4)OCCO5)c3n2)cc1,% of control,[3],67%
CCN(CC)CCCCNc1ncc2cc(-c3cc(OC)cc(OC)c3)c(NC(=O)NC(C)(C)C)nc2n1,% of control,[4],100%
C=CC(=O)Nc1cccc(C(=O)Nc2ccc(Nc3cc(-c4[nH]c(SC)nc4C)ccn3)cc2)c1,% of control,[5]; at 1 µM,106%
same,% of control,[5]; at 5 µM,69%
Cc1cc(F)c(C(=O)Nc2cccc(-c3nncn3C(C)C)n2)cc1-n1cnc(C2CC2)c1,% of control,[6],100%
CN(C(=O)c1cnn2cccnc12)c1cc2c(cc1N1CCOCC1)C(=O)N(C[C@@H](F)C(C)(C)O)C2,dTM,[7],-0.9 K
COCC(=O)NC/C=C/c1ccc2ncnc(Nc3ccc(Oc4ccc(C)nc4)c(C)c3)c2c1 [CP-724714],% of control,[8],100%
same,% of control,[9],0.2%
CC(=O)Nc1cccc(-n2c(=O)n(C3CC3)c(=O)c3c(Nc4ccc(I)cc4F)n(C)c(=O)c(C)c32)c1,% of control,[10],107%
CC(C)(O)[C@H](F)CN1Cc2cc(NC(=O)c3cnn4cccnc34)c(N3CCOCC3)cc2C1=O,dTM,[11],0.2 K
CN(C)CCOc1ccc(-c2nc(-c3ccncc3)c(-c3ccc4c(c3)CC/C4=N\O)[nH]2)cc1,% of control,[12],100%
Cc1cc([C@@H](C)Nc2ccccc2C(=O)O)c2nc(N3CCOCC3)cc(=O)n2c1 [AZD-6482],% of control,[13],96%
O[C@H]1CC[C@H](Nc2ncc3nc(Nc4c(F)cc(F)cc4F)n([C@H]4CCOC4)c3n2)CC1,% of control,[14],92%
N#Cc1cccc(-c2c[nH]c3ncnc(N4CCOCC4)c23)c1,% of inhibition,[15],9%
